Here are results for 30 compounds from US11066396B2 (priority 2016, dated 2021).

In one experiment the target is HDAC1 (Homo sapiens (Human), UniProt Q13547). As to conditions: read-out: HDAC1 IC50.
The target in the next experiment is HDAC5 (Homo sapiens (Human), UniProt Q9UQL6). To be noted: read-out: HDAC5 IC50.
A further experiment concerns the target HDAC8 (Homo sapiens (Human), UniProt Q9BY41). To be noted: read-out: HDAC8 IC50.

Sequence of HDAC1 (Q13547 whole entry): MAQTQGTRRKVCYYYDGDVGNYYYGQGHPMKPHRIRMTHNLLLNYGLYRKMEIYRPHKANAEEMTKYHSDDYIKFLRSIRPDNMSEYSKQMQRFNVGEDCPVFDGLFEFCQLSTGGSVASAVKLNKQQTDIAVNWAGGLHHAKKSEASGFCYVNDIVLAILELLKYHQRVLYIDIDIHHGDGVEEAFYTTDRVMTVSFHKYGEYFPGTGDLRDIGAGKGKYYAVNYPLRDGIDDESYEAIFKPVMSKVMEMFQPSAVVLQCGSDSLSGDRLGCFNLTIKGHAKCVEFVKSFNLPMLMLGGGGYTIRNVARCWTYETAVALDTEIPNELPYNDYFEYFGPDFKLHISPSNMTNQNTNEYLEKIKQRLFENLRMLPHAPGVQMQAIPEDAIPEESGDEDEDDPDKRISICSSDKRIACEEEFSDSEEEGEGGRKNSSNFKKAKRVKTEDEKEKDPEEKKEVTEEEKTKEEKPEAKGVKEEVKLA
Sequence of HDAC5 (Q9UQL6 656-1122): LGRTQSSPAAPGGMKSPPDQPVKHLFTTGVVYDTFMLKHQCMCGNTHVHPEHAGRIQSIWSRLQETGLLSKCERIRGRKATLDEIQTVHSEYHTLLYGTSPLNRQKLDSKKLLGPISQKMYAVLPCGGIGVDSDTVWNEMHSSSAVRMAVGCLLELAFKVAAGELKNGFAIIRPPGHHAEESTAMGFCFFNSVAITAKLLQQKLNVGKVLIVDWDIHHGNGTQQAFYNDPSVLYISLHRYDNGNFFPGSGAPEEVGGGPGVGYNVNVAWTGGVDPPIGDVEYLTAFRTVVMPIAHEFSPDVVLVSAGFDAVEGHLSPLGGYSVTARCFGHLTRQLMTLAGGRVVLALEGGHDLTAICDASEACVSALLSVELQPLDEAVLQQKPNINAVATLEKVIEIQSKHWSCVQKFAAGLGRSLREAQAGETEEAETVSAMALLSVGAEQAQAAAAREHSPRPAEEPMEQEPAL
Sequence of HDAC8 (Q9BY41 whole entry): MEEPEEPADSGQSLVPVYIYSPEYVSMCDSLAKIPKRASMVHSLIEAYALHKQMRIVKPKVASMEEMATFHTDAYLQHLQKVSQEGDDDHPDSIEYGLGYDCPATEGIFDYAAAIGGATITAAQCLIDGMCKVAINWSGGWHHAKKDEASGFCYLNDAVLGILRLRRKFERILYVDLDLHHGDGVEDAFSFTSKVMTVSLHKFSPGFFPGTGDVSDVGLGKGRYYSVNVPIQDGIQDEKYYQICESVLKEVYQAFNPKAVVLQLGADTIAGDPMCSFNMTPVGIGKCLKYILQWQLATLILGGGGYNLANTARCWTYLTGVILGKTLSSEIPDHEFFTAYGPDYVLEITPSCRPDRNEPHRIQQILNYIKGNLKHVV

For orientation: IC50 means the concentration needed to halve the response being measured. As to `Cn1c(OCc2ccc(-c3noc(C(F)(F)F)n3)c(F)c2)nc2ncccc21` [Example 273, 2-({3-fluoro-4-[5-(trifluoromethyl)-1,2,4-oxadiazol-3-yl]phenyl}methoxy)-1-methyl-1H-imidazo[4,5-b]pyridine], the half-maximal inhibitory concentration (IC50) at HDAC1 was 0.72 µM; on HDAC5, 0.028 µM.
The corresponding values for `CC(C)(C)CC(=O)NC(Cc1ccc(-c2noc(C(F)(F)F)n2)cn1)c1cccc(C(F)(F)F)c1` (racemic) [Example 481, 3,3-dimethyl-N-(2-{5-[5-(trifluoromethyl)-1,2,4-oxadiazol-3-yl]pyridin-2-yl}-1-[3-(trifluoromethyl)phenyl]ethyl)butanamide] are 1.1 µM and 0.71 µM.
As for `COc1ncccc1OCc1ccc(-c2noc(C(F)(F)F)n2)cn1` [Example 308, 2-methoxy-3-({5-[5-(trifluoromethyl)-1,2,4-oxadiazol-3-yl]pyridin-2-yl}methoxy)pyridine], the IC50 at HDAC1 was determined as 0.74 µM; on HDAC5, 0.31 µM.
For `Cc1ncc(OCc2ccc(-c3noc(C(F)(F)F)n3)c(F)c2)cn1` [Example 274, 5-({3-fluoro-4-[5-(trifluoromethyl)-1,2,4-oxadiazol-3-yl]phenyl}methoxy)-2-methylpyrimidine] the same measures were 4 µM and 0.16 µM.
As for `Cc1ccc(OCc2ccc(-c3noc(C(F)(F)F)n3)c(F)c2)nn1` [Example 263, 3-({3-fluoro-4-[5-(trifluoromethyl)-1,2,4-oxadiazol-3-yl]phenyl}methoxy)-6-methylpyridazine], the IC50 at HDAC1 was determined as 5.3 µM; on HDAC5, 0.24 µM.
Turning to `O=C1NCCc2c(OCc3ccc(-c4noc(C(F)(F)F)n4)cn3)cccc21` [Example 299, 5-({5-[5-(trifluoromethyl)-1,2,4-oxadiazol-3-yl]pyridin-2-yl}methoxy)-3,4-dihydroisoquinolin-1(2H)-one], the half-inhibitory concentration (IC50) at HDAC1 was 1.3 µM; at HDAC5, 0.8 µM.
In the case of `Cc1cncc(OCc2ccc(-c3noc(C(F)(F)F)n3)c(F)c2)c1` [Example 269, 3-({3-fluoro-4-[5-(trifluoromethyl)-1,2,4-oxadiazol-3-yl]phenyl}methoxy)-5-methylpyridine], the concentration for half-maximal inhibition (IC50) at HDAC1 was 7.1 µM; at HDAC5, 0.5 µM.
For `FC(F)(F)c1nc(-c2ccnc(OCc3ncccc3Cl)c2Cl)no1` [Example 295, 3-chloro-2-[(3-chloropyridin-2-yl)methoxy]-4-[5-(trifluoromethyl)-1,2,4-oxadiazol-3-yl]pyridine] the same measures were 17 µM and 0.5 µM.
In the case of `O=C(N1CCOCC1)N(Cc1ncc(-c2noc(C(F)(F)F)n2)cn1)c1cccc(C(F)(F)F)c1` [Example 50, N-((5-(5-(trifluoromethyl)-1,2,4-oxadiazol-3-yl)pyrimidin-2-yl)methyl)-N-(3-(trifluoromethyl)phenyl)morpholine-4-carboxamide], the results for the IC50 on HDAC1 and on HDAC5 were 0.24 µM and 0.82 µM, respectively.
As for `FC(F)(F)c1nc(-c2ccc(COc3ccc(Cl)nc3)nc2)no1` [Example 310, 2-chloro-5-({5-[5-(trifluoromethyl)-1,2,4-oxadiazol-3-yl]pyridin-2-yl}methoxy)pyridine], the results for the concentration for half-maximal inhibition (IC50) at HDAC1 and at HDAC5 were 2.4 µM and 0.77 µM, respectively.
`CCS(=O)(=O)N(Cc1ccc(-c2noc(C(F)(F)F)n2)cc1)c1cccc(C(F)(F)F)c1` [Example 491, N-({4-[5-(trifluoromethyl)-1,2,4-oxadiazol-3-yl]phenyl}methyl)-N-[3-(trifluoromethyl)phenyl]ethanesulfonamide]: the 50% inhibitory concentration (IC50) at HDAC1 came out at 0.82 µM; on HDAC5, 0.14 µM.
For `COc1ncc(OCc2ccc(-c3noc(C(F)(F)F)n3)c(F)c2)cn1` [Example 279, 5-({3-fluoro-4-[5-(trifluoromethyl)-1,2,4-oxadiazol-3-yl]phenyl}methoxy)-2-methoxypyrimidine] the same measures were 0.75 µM and 0.069 µM.
For `FC(F)(F)c1nc(-c2ccc(COc3ccc4ncnn4c3)nc2)no1` [Example 305, 6-({5-[5-(trifluoromethyl)-1,2,4-oxadiazol-3-yl]pyridin-2-yl}methoxy)[1,2,4]triazolo[1,5-a]pyridine] the same measures were 2.4 µM and 1.7 µM.
The corresponding values for `NC(=O)c1cccc(OCc2ccc(-c3noc(C(F)(F)F)n3)c(F)c2)c1` [Example 264, 3-({3-fluoro-4-[5-(trifluoromethyl)-1,2,4-oxadiazol-3-yl]phenyl}methoxy)benzamide] are 2.2 µM and 0.09 µM.
Turning to `Fc1ccc2ccc(OCc3ccc(-c4noc(C(F)(F)F)n4)c(F)c3)nc2n1` [Example 261, 2-fluoro-7-({3-fluoro-4-[5-(trifluoromethyl)-1,2,4-oxadiazol-3-yl]phenyl}methoxy)-1,8-naphthyridine], the results for the IC50 on HDAC1 and on HDAC5 were 0.85 µM and 0.024 µM, respectively.
For `FC(F)c1cc(OCc2ccc(-c3noc(C(F)(F)F)n3)cn2)ncn1` [Example 306, 4-(difluoromethyl)-6-({5-[5-(trifluoromethyl)-1,2,4-oxadiazol-3-yl]pyridin-2-yl}methoxy)pyrimidine] the same measures were 1.3 µM and 0.22 µM.
For `O=C1CCC(c2ccccc2Cl)N1c1cc(F)c(-c2noc(C(F)(F)F)n2)cc1F` (racemic) [Example 120, 5-(2-chlorophenyl)-1-(2,5-difluoro-4-(5-(trifluoromethyl)-1,2,4-oxadiazol-3-yl)phenyl)pyrrolidin-2-one], the IC50 on HDAC5 turned out to be 0.079 µM.
On to `Cc1nc2ccc(F)cc2n1Cc1ccc(-c2noc(C(F)(F)F)n2)cc1F` [Example 99, 3-(3-fluoro-4-((6-fluoro-2-methyl-1H-benzo[d]imidazol-1-yl)methyl)phenyl)-5-(trifluoromethyl)-1,2,4-oxadiazole], for which the values for the IC50 on HDAC1 and on HDAC8 were 1.9 µM and 5.9 µM, respectively.
For `Fc1ccc2ccc(OCc3ccc(-c4noc(C(F)(F)F)n4)cn3)nc2c1` [Example 326, 7-fluoro-2-({5-[5-(trifluoromethyl)-1,2,4-oxadiazol-3-yl]pyridin-2-yl}methoxy)quinoline] the same measures were 35 µM and 45 µM.
The corresponding values for `O=C1CCC(c2ccccc2Cl)N1c1ccc(-c2noc(C(F)(F)F)n2)c(F)c1` (racemic) [Example 37, 5-(2-chlorophenyl)-1-(3-fluoro-4-(5-(trifluoromethyl)-1,2,4-oxadiazol-3-yl)phenyl)pyrrolidin-2-one] are 16 µM and 10 µM.
The corresponding values for `O=C(C1CCCS(=O)(=O)C1)N(Cc1ccc(-c2noc(C(F)(F)F)n2)cn1)c1cccc(F)c1` (racemic) [Example 405, N-(3-fluorophenyl)-N-({5-[5-(trifluoromethyl)-1,2,4-oxadiazol-3-yl]pyridin-2-yl}methyl)tetrahydro-2H-thiopyran-3-carboxamide 1,1-dioxide] are 0.22 µM and 1.6 µM.
As to `Cn1nccc1COc1cc(-c2noc(C(F)(F)F)n2)ccn1` [Example 221, 2-[(1-methyl-1H-pyrazol-5-yl)methoxy]-4-[5-(trifluoromethyl)-1,2,4-oxadiazol-3-yl]pyridine], the results for the IC50 on HDAC1 and at HDAC8 were 2.8 µM and 1.6 µM, respectively.
For `COCCn1nc(C(=O)N(Cc2ccc(-c3noc(C(F)(F)F)n3)cc2)c2cccc(C(F)(F)F)c2)ccc1=O` [Example 86, 1-(2-methoxyethyl)-6-oxo-N-(4-(5-(trifluoromethyl)-1,2,4-oxadiazol-3-yl)benzyl)-N-(3-(trifluoromethyl)phenyl)-1,6-dihydropyridazine-3-carboxamide] the same measures were 1.2 µM and 3.3 µM.
On to `Cc1noc([C@@H]2CCC(=O)N2c2ccc(-c3noc(C(F)(F)F)n3)cc2F)n1` [Example 123, (S)-1-(2-fluoro-4-(5-(trifluoromethyl)-1,2,4-oxadiazol-3-yl)phenyl)-5-(3-methyl-1,2,4-oxadiazol-5-yl)pyrrolidin-2-one], for which the values for the concentration for half-maximal inhibition (IC50) at HDAC1 and at HDAC8 were 1 µM and 5.2 µM, respectively.
For `O=C1COC[C@@H](c2nc(-c3ccccn3)no2)N1c1ccc(-c2noc(C(F)(F)F)n2)cc1` [Example 34, (S)-5-(3-(Pyridin-2-yl)-1,2,4-oxadiazol-5-yl)-4-(4-(5-(trifluoromethyl)-1,2,4-oxadiazol-3-yl)phenyl)morpholin-3-one] the same measures were 0.064 µM and 0.28 µM.
For `CC(C)(C)OC(=O)C1COCC(=O)N1c1ccc(-c2noc(C(F)(F)F)n2)c(F)c1` (centres unmarked) [Example 468, tert-butyl 4-{3-fluoro-4-[5-(trifluoromethyl)-1,2,4-oxadiazol-3-yl]phenyl}-5-oxomorpholine-3-carboxylate] the same measures were 0.94 µM and 5.5 µM.
For `FC(F)(F)c1nc(-c2ccc(CNc3cccnc3)cc2)no1` [Example 383, N-{4-[5-(trifluoromethyl)-1,2,4-oxadiazol-3-yl]benzyl}pyridin-3-amine] the same measures were 1.7 µM and 3.1 µM.
In the case of `FC(F)(F)c1nc(-c2ccc(CNc3c[nH]nn3)nc2)no1` [Example 431, N-({5-[5-(trifluoromethyl)-1,2,4-oxadiazol-3-yl]pyridin-2-yl}methyl)-1H-1,2,3-triazol-4-amine], the IC50 at HDAC1 was determined as 4.3 µM; at HDAC8, 1.9 µM.
The corresponding values for `Cc1ncc(C(=O)N(Cc2ccc(-c3noc(C(F)(F)F)n3)cn2)c2cccc(F)c2)cn1` [Example 401, N-(3-fluorophenyl)-2-methyl-N-({5-[5-(trifluoromethyl)-1,2,4-oxadiazol-3-yl]pyridin-2-yl}methyl)pyrimidine-5-carboxamide] are 0.29 µM and 3.3 µM.
The corresponding values for `O=C1CC[C@@H](c2nc3ccccc3[nH]2)N1c1ccc(-c2noc(C(F)(F)F)n2)cc1` [Example 21, (S)-5-(1H-Benzo[d]imidazol-2-yl)-1-(4-(5-(trifluoromethyl)-1,2,4-oxadiazol-3-yl)phenyl)pyrrolidin-2-one] are 0.11 µM and 0.66 µM.
